Measurements as given in ChEMBL document CHEMBL1240392 (Antimicrob Agents Chemother, 2010).
Values after ≈ are worked out from the molar mass of the structure shown. Active and inactive are the calls of the source. The calls are words filed in the database; no cut-off is given here.

Assays:
in vivo = conditions: New Zealand, rabbit, im, 120 mg/kg
Description: Cmax in New Zealand rabbit meningitis model at 120 mg/kg, im

[1] = AUC in C57BL/6 mouse pneumonia model at 30 mg/kg, im; assay type: ADME, organism-based; set-up: dose 30 mg/kg, route intramuscular; conditions: in vivo
[2] = Half life in New Zealand rabbit meningitis model at 120 mg/kg, im; assay type: ADME, organism-based, Oryctolagus cuniculus; set-up: dose 120 mg/kg, route intramuscular; conditions: in vivo
[3] = AUC in New Zealand rabbit meningitis model at 120 mg/kg, im; assay type: ADME, organism-based, Oryctolagus cuniculus; set-up: dose 120 mg/kg, route intramuscular; conditions: in vivo
[4] = Cmax in C57BL/6 mouse pneumonia model at 30 mg/kg, im; assay type: ADME, organism-based; set-up: dose 30 mg/kg, route intramuscular; conditions: in vivo
[5] = Half life in C57BL/6 mouse pneumonia model at 30 mg/kg, im; assay type: ADME, organism-based; set-up: dose 30 mg/kg, route intramuscular; conditions: in vivo
Acinetobacter baumannii [6] = test: Antimicrobial activity against Acinetobacter baumannii 506 after 24 hrs by time-kill assay; assay type: functional, organism-based
[7] = Ratio of Cmax to MIC for Acinetobacter baumannii 1327 in pharmacokinetic-pharmacodynamic C57BL/6 mouse pneumonia model at 30 mg/kg, im; assay type: functional; conditions: route intramuscular
[8] = Ratio of Cmax to MIC for Acinetobacter baumannii 1327 in pharmacokinetic-pharmacodynamic New Zealand rabbit meningitis model at 120 mg/kg, im; assay type: functional; conditions: route intramuscular
Acinetobacter baumannii [9] = test: Antimicrobial activity against Acinetobacter baumannii 1417; assay type: functional
[10] = Ratio of AUC to MIC for Acinetobacter baumannii 1327 in pharmacokinetic-pharmacodynamic New Zealand rabbit meningitis model at 120 mg/kg, im; assay type: functional; conditions: route intramuscular
[11] = Ratio of AUC to MIC for Acinetobacter baumannii 1327 in pharmacokinetic-pharmacodynamic C57BL/6 mouse pneumonia model at 30 mg/kg, im; assay type: functional; conditions: route intramuscular
[12] = T>MIC in Acinetobacter baumannii infected New Zealand rabbit meningitis model at 120 mg/kg, im; assay type: functional; conditions: route intramuscular
Acinetobacter baumannii [13] = test: Antimicrobial activity against Acinetobacter baumannii 1327 after 24 hrs by time-kill assay; assay type: functional, organism-based
Acinetobacter baumannii [14] = test: Antimicrobial activity against Acinetobacter baumannii clinical isolate; assay type: functional
Acinetobacter baumannii [15] = test: Antibacterial activity against Acinetobacter baumannii infected in C57BL/6 mouse model assessed as survival rate at total dose of 120 mg/kg/day, im administered as four divided doses measured after 72 hrs post last dose relative to control; assay type: functional; conditions: route intramuscular
Acinetobacter baumannii [16] = test: Antimicrobial activity against Acinetobacter baumannii 1327; assay type: functional
Acinetobacter baumannii [17] = test: Antimicrobial activity against Acinetobacter baumannii 940 after 24 hrs by time-kill assay; assay type: functional, organism-based
Acinetobacter baumannii [18] = test: Antimicrobial activity against Acinetobacter baumannii infected in C57BL/6 mouse model assessed as reduction in bacterial count per gram of lung at total dose of 120 mg/kg/day, im administered as four divided doses after 72 hrs (RVb = 10.6+/-0.27); assay type: functional, organism-based
[19] = T>MIC in Acinetobacter baumannii infected C57BL/6 mouse pneumonia model at 30 mg/kg, im; assay type: functional; conditions: route intramuscular
Acinetobacter baumannii [20] = test: Antimicrobial activity against Acinetobacter baumannii 1417 after 24 hrs by time-kill assay; assay type: functional, organism-based
Acinetobacter baumannii [21] = test: Antimicrobial activity against Acinetobacter baumannii 506; assay type: functional
Acinetobacter baumannii [22] = test: Antimicrobial activity against Acinetobacter baumannii infected in C57BL/6 mouse model assessed as reduction in bacterial count in blood at total dose of 120 mg/kg/day, im administered as four divided doses after 72 hrs; assay type: functional; set-up: scale not given: the % may be the effect or the level left; conditions: route intramuscular
Acinetobacter baumannii [23] = test: Antimicrobial activity against Acinetobacter baumannii 940; assay type: functional
Acinetobacter baumannii [24] = test: Antibacterial activity against Acinetobacter baumannii 1327 infected in New Zealand rabbit meningitis model assessed as reduction in bacterial count in CSF at 25 mg/kg, iv measured after 2 hrs of last dose (RVb = 5.1); assay type: functional
[25] = Cmax in New Zealand rabbit meningitis model at 25 mg/kg, iv; assay type: ADME, organism-based, Oryctolagus cuniculus; set-up: dose 25 mg/kg, route intravenous; conditions: in vivo
[26] = AUC in C57BL/6 mouse pneumonia model at 25 mg/kg, ip; assay type: ADME, organism-based; set-up: dose 25 mg/kg, route intraperitoneal; conditions: in vivo
Oryctolagus cuniculus = test: Antiinflammatory activity in Acinetobacter baumannii 1327-infected New Zealand rabbit meningitis model assessed as in WBC count at 25 mg/kg, iv after 6 hrs (RVb = 1 cells/ul); assay type: functional
Acinetobacter baumannii [27] = test: Antibacterial activity against Acinetobacter baumannii 1327 infected in New Zealand rabbit meningitis model assessed as reduction in bacterial count in CSF at 25 mg/kg, iv measured after 4 hrs of last dose (RVb = 5.2); assay type: functional
Acinetobacter baumannii [28] = test: Antimicrobial activity against Acinetobacter baumannii infected in C57BL/6 mouse model assessed as reduction in bacterial count per gram of lung at total dose of 100 mg/kg/day, ip administered as four divided doses after 72 hrs (RVb = 10.6+/-0.27); assay type: functional, organism-based
Acinetobacter baumannii [29] = test: Antimicrobial activity against Acinetobacter baumannii infected in C57BL/6 mouse model assessed as reduction in bacterial count in blood at total dose of 100 mg/kg/day, ip administered as four divided doses after 72 hrs; assay type: functional; set-up: scale not given: the % may be the effect or the level left; conditions: route intraperitoneal
[30] = Cmax in C57BL/6 mouse pneumonia model at 25 mg/kg, ip; assay type: ADME, organism-based; set-up: dose 25 mg/kg, route intraperitoneal; conditions: in vivo
[31] = T>MIC in Acinetobacter baumannii infected C57BL/6 mouse pneumonia model at 25 mg/kg, iv; assay type: functional
[32] = AUC in New Zealand rabbit meningitis model at 25 mg/kg, iv; assay type: ADME, organism-based, Oryctolagus cuniculus; set-up: dose 25 mg/kg, route intravenous; conditions: in vivo
[33] = T>MIC in Acinetobacter baumannii infected New Zealand rabbit meningitis model at 25 mg/kg, iv; assay type: functional
Acinetobacter baumannii [34] = test: Antibacterial activity against Acinetobacter baumannii 1327 infected in New Zealand rabbit meningitis model assessed as reduction in bacterial count in CSF at 25 mg/kg, iv measured after 6 hrs of last dose (RVb = 5.5); assay type: functional
Acinetobacter baumannii [35] = test: Antibacterial activity against Acinetobacter baumannii infected in C57BL/6 mouse model assessed as survival rate at total dose of 100 mg/kg/day, ip administered as four divided doses measured after 72 hrs post last dose; assay type: functional; conditions: route intraperitoneal

Structure (SMILES): C[C@@H](O)[C@H]1C(=O)N2C(C(=O)O)=C(SCCN=CN)C[C@H]12 [IMIPENEM ANHYDROUS]
- Cmax (in vivo): 25400 ng/mL
- AUC [1]: 11300 ng·h/mL
- half-life [2]: 104 min
- AUC [3]: 50400 ng·h/mL
- Cmax [4]: 23200 ng/mL
- half-life [5]: 15.6 min

Structure (SMILES): C[C@@H](O)[C@H]1C(=O)N2C(C(=O)O)=C(SCCNC=N)C[C@H]12 [IMIPENEM ANHYDROUS]
- Activity (Acinetobacter baumannii [6]): Active
- Ratio [7]: 0.73
- Ratio [8]: 0.79
- MBC (Acinetobacter baumannii [9]): 32 µg/mL (≈ 107 µM)
- MIC (Acinetobacter baumannii [9]): 32 µg/mL (≈ 107 µM)
- Ratio [10]: 1.58
- Ratio [11]: 0.35
- T>MIC [12]: 0 h
- Activity (Acinetobacter baumannii [13]): Active
- MIC (Acinetobacter baumannii [14]): ≥ 64 µg/mL
- survival at 120 mg/kg/day (Acinetobacter baumannii [15]): 28.6%
- MBC (Acinetobacter baumannii [16]): 32 µg/mL (≈ 107 µM)
- MIC (Acinetobacter baumannii [16]): 32 µg/mL (≈ 107 µM)
- Activity (Acinetobacter baumannii [17]): Active
- Activity (Acinetobacter baumannii [18]): Active
- T>MIC [19]: 0 h
- Activity (Acinetobacter baumannii [20]): Active
- MBC (Acinetobacter baumannii [21]): 32 µg/mL (≈ 107 µM)
- MIC (Acinetobacter baumannii [21]): 32 µg/mL (≈ 107 µM)
- Activity (Acinetobacter baumannii [22]): 30.8%
- MBC (Acinetobacter baumannii [23]): 32 µg/mL (≈ 107 µM)
- MIC (Acinetobacter baumannii [23]): 32 µg/mL (≈ 107 µM)

Structure (SMILES): CO[C@H]1/C=C/O[C@@]2(C)Oc3c(C)c(O)c4c(O)c(c(/C=N/N5CCN(C)CC5)c(O)c4c3C2=O)NC(=O)/C(C)=C\C=C\[C@H](C)[C@H](O)[C@@H](C)[C@@H](O)[C@@H](C)[C@H](OC(C)=O)[C@@H]1C [RIFAMPIN]
- Activity (Acinetobacter baumannii [24]): 5.1 log10CFU/ml
- Activity (Acinetobacter baumannii [6]): Active
- Cmax [25]: 16600 ng/mL
- MBC (Acinetobacter baumannii [9]): 8 µg/mL (≈ 9.72 µM)
- MIC (Acinetobacter baumannii [9]): 8 µg/mL (≈ 9.72 µM)
- AUC [26]: 24800 ng·h/mL
- Activity (Oryctolagus cuniculus): 8.2%
- Activity (Acinetobacter baumannii [27]): 4.5 log10CFU/ml
- Activity (Acinetobacter baumannii [13]): Active
- Activity (Acinetobacter baumannii [28]): Active
- Activity (Acinetobacter baumannii [29]): 78.6%
- MBC (Acinetobacter baumannii [16]): 8 µg/mL (≈ 9.72 µM)
- MIC (Acinetobacter baumannii [16]): 4 µg/mL (≈ 4.86 µM)
- Cmax [30]: 15800 ng/mL
- Activity (Acinetobacter baumannii [17]): Active
- T>MIC [31]: 7.5 h
- AUC [32]: 40300 ng·h/mL
- T>MIC [33]: 6.54 h
- Activity (Acinetobacter baumannii [20]): Active
- MBC (Acinetobacter baumannii [21]): 4 µg/mL (≈ 4.86 µM)
- MIC (Acinetobacter baumannii [21]): 4 µg/mL (≈ 4.86 µM)
- Activity (Acinetobacter baumannii [34]): 3.5 log10CFU/ml
- survival at 100 mg/kg/day (Acinetobacter baumannii [35]): 71.4%
- MBC (Acinetobacter baumannii [23]): 4 µg/mL (≈ 4.86 µM)
- MIC (Acinetobacter baumannii [23]): 4 µg/mL (≈ 4.86 µM)
